# Experimental data: PubChem BioAssay (NCI)
#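 How tested: cells in 96-well plates exposed to compound for 48 hours at five concentrations. GI50 is the concentration that inhibits growth by half. The concentration for full growth arrest is given as TGI.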
# Columns and labels:
# Assay in all cases: NCI tumour cell line growth inhibition, 48 h
# IGROV1 ovarian = system: IGROV1 ovarian
# HOP-62 NSCLC = system: HOP-62 NSCLC
# NCI-H522 lung = system: NCI-H522 lung
# SF-268 CNS = system: SF-268 CNS
# CCRF-CEM leukemia = system: CCRF-CEM leukemia
# OVCAR-8 ovarian = system: OVCAR-8 ovarian
# SW-620 colon = system: SW-620 colon
# U251 CNS = system: U251 CNS
# SF-295 CNS = system: SF-295 CNS
# NCI/ADR-RES ovarian = system: NCI/ADR-RES ovarian
Structure (SMILES),TGI (IGROV1 ovarian),TGI (HOP-62 NSCLC),TGI (NCI-H522 lung),TGI (SF-268 CNS),TGI (CCRF-CEM leukemia),TGI (OVCAR-8 ovarian),TGI (SW-620 colon),TGI (U251 CNS),TGI (SF-295 CNS),GI50 (IGROV1 ovarian),GI50 (NCI-H522 lung),GI50 (SF-268 CNS),GI50 (OVCAR-8 ovarian),GI50 (SW-620 colon),GI50 (SF-295 CNS),GI50 (U251 CNS),GI50 (NCI/ADR-RES ovarian),TGI (NCI/ADR-RES ovarian),GI50 (HOP-62 NSCLC),GI50 (CCRF-CEM leukemia)
O=C(c1ccccc1)C1CCCCN1C(=O)c1ccccc1 (centres undefined),> 100 µM,> 100 µM,> 100 µM,> 100 µM,> 100 µM,> 100 µM,> 100 µM,> 100 µM,–,–,–,–,–,–,–,–,–,–,–,–
COc1ccc(NC(=O)C(=O)Cc2nc3ccc([N+](=O)[O-])cc3[nH]c2=O)c(OC)c1,> 100 µM,–,> 100 µM,–,> 100 µM,–,> 100 µM,–,> 100 µM,–,–,–,–,–,–,–,–,–,–,–
CS(=O)(=O)OCCN1CCN(C(=O)c2cccc3c(Nc4ccc(S(=O)(=O)N=C(N)N)cc4)c4ccccc4nc23)CC1,> 100 µM,> 100 µM,–,> 100 µM,> 100 µM,> 100 µM,–,> 100 µM,> 100 µM,–,–,–,–,–,–,–,–,–,–,–
CCOC(=O)/C(O)=C/c1cc(OC)cc(=O)o1,> 100 µM,–,> 100 µM,> 100 µM,> 100 µM,> 100 µM,> 100 µM,> 100 µM,> 100 µM,–,–,–,–,–,–,–,–,–,–,–
CC1OC(OCC2OC(Oc3c(-c4ccc(O)cc4)oc4cc(O)cc(O)c4c3=O)C(OC3OC(C)C(O)C(O)C3O)C(O)C2O)C(O)C(O)C1O (centres undefined),> 100 µM,> 100 µM,> 100 µM,> 100 µM,> 83.5 µM,> 100 µM,> 62.4 µM,> 100 µM,> 100 µM,–,–,–,–,–,–,–,–,–,–,–
COC[C@@H](N=CN1CCc2cc(OC)c(OC)cc2[C@@H]1C)C(C)(C)C,> 100 µM,> 100 µM,> 100 µM,> 100 µM,> 100 µM,> 100 µM,> 100 µM,> 100 µM,> 100 µM,–,–,–,–,–,–,–,–,–,–,–
CC1(C)C(=O)C(C)(C)C1=NN,> 100 µM,> 100 µM,> 100 µM,> 100 µM,–,> 100 µM,> 100 µM,> 100 µM,> 100 µM,–,–,–,–,–,–,–,–,–,–,–
Cc1ccc(-c2cc(-c3ccco3)c(C#N)c(=O)[nH]2)cc1,> 100 µM,> 100 µM,> 100 µM,> 100 µM,> 100 µM,> 100 µM,> 100 µM,> 100 µM,> 100 µM,–,–,–,–,–,–,–,–,–,–,–
CCCNCCCC(NC(C)=O)C(=O)NCc1ccccc1 (centres undefined),> 100 µM,> 100 µM,> 100 µM,> 100 µM,> 100 µM,> 100 µM,> 100 µM,> 100 µM,> 100 µM,–,–,–,–,–,–,–,–,–,–,–
CC(=O)NNc1nc(C)c(C(=O)NNC(=O)C(=O)Nc2c(C)cccc2C)s1,> 100 µM,> 100 µM,32.8 µM,> 100 µM,81.7 µM,80.1 µM,> 100 µM,> 100 µM,> 100 µM,–,–,–,–,–,–,–,–,–,–,–
O=C(Nc1ccc(F)cc1)c1ccc(NC2=C(Cl)C(=O)N(Cc3ccccc3)C2=O)cc1,3.58 µM,–,28.8 µM,23.6 µM,–,30.9 µM,> 100 µM,24.1 µM,16.6 µM,1.06 µM,7.27 µM,4.4 µM,4.66 µM,4.54 µM,4.27 µM,11 µM,53.3 µM,> 100 µM,–,–
CN(C)c1ccc([O-])cc1.CN(C)c1ccc([O-])cc1.CN(C)c1ccc([O-])cc1.CN(C)c1ccc([O-])cc1.[Ti+4],> 100 µM,> 100 µM,98.2 µM,> 100 µM,> 100 µM,> 100 µM,> 100 µM,–,> 100 µM,> 100 µM,33.2 µM,> 100 µM,73.7 µM,69.9 µM,> 100 µM,–,–,–,> 100 µM,43.7 µM
Clc1ccc(Cc2nc3ccccc3s2)c(Cl)c1,30.6 µM,32.9 µM,30.9 µM,30.5 µM,22.7 µM,38.4 µM,46.4 µM,–,31.8 µM,–,–,–,–,–,–,–,–,–,–,–
O=C(O)C1C2CCC(O2)C1C(=O)N1CCCCC1 (centres undefined),74.6 µM,35.8 µM,17.4 µM,28.9 µM,–,18.1 µM,15 µM,17 µM,23.9 µM,–,–,–,–,–,–,–,–,–,–,–
COC(=O)C(C(=O)C(=O)Nc1ccc(C(F)(F)F)cc1[N+](=O)[O-])c1csc(-n2nc(-c3ccccc3)cc2-c2ccccc2)n1 (centres undefined),> 100 µM,> 100 µM,> 100 µM,–,> 100 µM,> 100 µM,> 100 µM,> 100 µM,> 100 µM,–,–,–,–,–,–,–,–,–,–,–
C1C[OH+]CC[OH+]CCNCC[OH+]CC[OH+]CCN1.[Cl-].[Pt+4],> 100 µM,> 100 µM,> 100 µM,> 100 µM,> 100 µM,> 100 µM,> 100 µM,> 100 µM,> 100 µM,> 100 µM,26.3 µM,> 100 µM,> 100 µM,57.3 µM,> 100 µM,> 100 µM,–,–,> 100 µM,30.1 µM
COC1=CC(=O)C2C(C1=O)[C@@H]1c3ccccc3C[C@H]21 (some centres undefined),> 100 µM,> 100 µM,> 100 µM,> 100 µM,> 100 µM,> 100 µM,> 100 µM,> 100 µM,> 100 µM,–,–,–,–,–,–,–,–,–,–,–
CC(C)C1(O)C(c2ccccc2)=C(c2ccccc2)C(c2ccccc2)=C1c1ccccc1,> 100 µM,30.1 µM,23.9 µM,27.6 µM,> 100 µM,> 100 µM,> 100 µM,18.7 µM,30.2 µM,–,–,–,–,–,–,–,–,–,–,–
CCCCc1c2c(nc3c1CCc1cc4cc5c(nc4nc1-3)-c1nc3c(c(CCCC)c1CC5)CCCC3)CCCC2,> 100 µM,> 100 µM,> 100 µM,> 100 µM,> 100 µM,> 100 µM,> 100 µM,> 100 µM,> 100 µM,–,–,–,–,–,–,–,–,–,–,–
CC1CC#CCOC(=O)CCCC1=O (centres undefined),> 100 µM,> 100 µM,> 100 µM,> 100 µM,> 100 µM,> 100 µM,> 100 µM,> 100 µM,> 100 µM,–,–,–,–,–,–,–,–,–,–,–
NC1CCCCC1.[O]=[Ge].[O]=[Ge].[O]=[Ge][OH].[O]=[Ge][OH],> 100 µM,> 100 µM,–,> 100 µM,> 100 µM,> 100 µM,> 100 µM,–,> 100 µM,–,–,–,–,–,> 100 µM,–,–,–,–,–
